Data from BindingDB's records for doi:10.1016/j.bioorg.2016.02.009 (Tianjin University of Science and Technology, 2016).

Biological target: Isoform 2 of Hepatocyte growth factor receptor (2) (Homo sapiens, UniProt P08581)
Assay: c-Met Z-LYTE Assay
Conditions: pH 7; 25 °C
Method: The c-Met kinase activity of five target compounds and three positive compounds were evaluated using standard Z-LYTE Assays (fluorescence resonance energy transfer, FRET). The test compounds or reference controls were dissolved indimethyl sulfoxide (DMSO) as stock solution. […] 5 µL of the detectionreagents A (Invitrogen) was added at final concentrations of 64-fold dilution. The plates were incubated at room temperature for 60 min and then read in the Envision plate reader (PerkinElmer).

Sequence of Isoform 2 of Hepatocyte growth factor receptor (2) (P08581 as listed by the source): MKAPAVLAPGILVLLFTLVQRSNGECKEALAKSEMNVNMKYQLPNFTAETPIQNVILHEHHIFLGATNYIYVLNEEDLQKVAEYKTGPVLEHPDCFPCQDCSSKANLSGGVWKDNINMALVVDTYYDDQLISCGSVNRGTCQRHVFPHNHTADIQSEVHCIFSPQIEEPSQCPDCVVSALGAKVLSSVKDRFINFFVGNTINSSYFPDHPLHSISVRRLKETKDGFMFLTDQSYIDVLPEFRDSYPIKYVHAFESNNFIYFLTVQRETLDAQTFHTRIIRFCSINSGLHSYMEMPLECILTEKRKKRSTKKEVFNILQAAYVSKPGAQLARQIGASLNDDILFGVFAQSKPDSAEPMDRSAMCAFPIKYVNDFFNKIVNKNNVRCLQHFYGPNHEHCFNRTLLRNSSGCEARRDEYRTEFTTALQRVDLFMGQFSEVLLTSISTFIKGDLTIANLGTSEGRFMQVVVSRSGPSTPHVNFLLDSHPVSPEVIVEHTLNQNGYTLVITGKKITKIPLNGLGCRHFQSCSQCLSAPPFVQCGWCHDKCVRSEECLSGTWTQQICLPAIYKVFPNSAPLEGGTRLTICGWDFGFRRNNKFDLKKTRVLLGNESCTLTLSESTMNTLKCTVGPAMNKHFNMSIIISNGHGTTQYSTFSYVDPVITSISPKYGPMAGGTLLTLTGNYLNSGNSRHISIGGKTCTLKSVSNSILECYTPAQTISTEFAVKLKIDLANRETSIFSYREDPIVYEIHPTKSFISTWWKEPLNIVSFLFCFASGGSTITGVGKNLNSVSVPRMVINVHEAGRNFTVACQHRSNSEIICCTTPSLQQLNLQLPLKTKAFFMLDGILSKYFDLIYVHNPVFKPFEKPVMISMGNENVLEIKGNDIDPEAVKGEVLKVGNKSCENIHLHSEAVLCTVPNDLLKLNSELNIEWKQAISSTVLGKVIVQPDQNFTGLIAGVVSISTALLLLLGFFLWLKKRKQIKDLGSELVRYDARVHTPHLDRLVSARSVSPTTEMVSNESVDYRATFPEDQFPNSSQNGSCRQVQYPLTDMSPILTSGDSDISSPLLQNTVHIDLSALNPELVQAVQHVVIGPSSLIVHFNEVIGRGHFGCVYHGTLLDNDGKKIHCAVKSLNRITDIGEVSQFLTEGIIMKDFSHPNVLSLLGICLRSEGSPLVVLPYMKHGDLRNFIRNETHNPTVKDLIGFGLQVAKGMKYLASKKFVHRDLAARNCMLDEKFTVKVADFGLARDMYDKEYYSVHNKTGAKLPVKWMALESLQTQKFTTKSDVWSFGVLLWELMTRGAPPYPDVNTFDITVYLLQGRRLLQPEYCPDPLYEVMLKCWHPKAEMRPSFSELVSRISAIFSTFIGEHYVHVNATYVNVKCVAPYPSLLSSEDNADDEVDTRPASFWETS

Row | IC50 [µM] | SMILES
1 | 0.286 | Cc1[nH]c2ncc(-c3cnn(C4CCNCC4)c3)cc2c1C(C)c1c(Cl)ccc(F)c1Cl (centres undefined) [3-(1-(2,6-dichloro-3-fluorophenyl)ethyl)-2-methyl-5-(1-(piperidin-4-yl)-1H-pyrazol-4-yl)-1H-pyrrolo[2,3-b]pyridine (6)]
2 | 0.0228 | Fc1ccc(Cl)c(Sc2n[nH]c3ncc(-c4cnn(C5CCNCC5)c4)cc23)c1Cl [3-((2,6-dichloro-3-fluorophenyl)thio)-5-(1-(piperidin-4-yl)-1H-pyrazol-4-yl)-1H-pyrazolo[3,4-b]pyridine (9)]
3 | < 0.1 | CC(c1c(Cl)ccc(F)c1Cl)c1c[nH]c2ncc(-c3cnn(C4CCNCC4)c3)cc12 (centres undefined) [4-(4-{3-[1-(2,6-dichloro-3-fluorophenyl)ethyl]-1H-pyrrolo[2,3-b]pyridin-5-yl}-1H-pyrazol-1-yl)piperidine (1)]
4 | 0.0474 | Fc1ccc(Cl)c(C2(c3n[nH]c4ncc(-c5cnn(C6CCNCC6)c5)cc34)CC2)c1Cl [3-(1-(2,6-dichloro-3-fluorophenyl)cyclopropyl)-5-(1-(piperidin-4-yl)-1H-pyrazol-4-yl)-1H-pyrazolo[3,4-b]pyridine (10)]

Continued, compound first:

Row | SMILES | IC50 [µM]
5 | O=C(NCc1ccc(F)cc1)Nc1ccc(Oc2ccnc3[nH]ccc23)c(F)c1 [3-(3-fluoro-4-{1H-pyrrolo[2,3-b]pyridin-4-yloxy}phenyl)-1-[(4-fluorophenyl)methyl]urea (2)] | 0.011
6 | CC(Sc1cc(-c2cnn(C3CCNCC3)c2)cnc1N)c1c(Cl)ccc(F)c1Cl (centres undefined) [3-{[1-(2,6-dichloro-3-fluorophenyl)ethyl]sulfanyl}-5-[1-(piperidin-4-yl)-1H-pyrazol-4-yl]pyridin-2-amine (11b)] | 0.0512
7 | CC(c1c(Cl)ccc(F)c1Cl)c1c(Cl)[nH]c2ncc(-c3cnn(C4CCNCC4)c3)cc12 (centres undefined) [4-(4-{2-chloro-3-[1-(2,6-dichloro-3-fluorophenyl)ethyl]-1H-pyrrolo[2,3-b]pyridin-5-yl}-1H-pyrazol-1-yl)piperidine (7)] | 0.982
8 | c1ccc(-c2cnc3nnc(C4(c5ccc6ncccc6c5)CC4)n3n2)cc1 [6-(1-{6-phenyl-[1,2,4]triazolo[4,3-b][1,2,4]triazin-3-yl}cyclopropyl)quinoline (5)] | 0.013
9 | O=C(NCc1ccc(F)cc1)Nc1ccc(Oc2ccnc3[nH]c(-c4cccnc4)cc23)c(F)c1 [3-(3-fluoro-4-{[2-(pyridin-3-yl)-1H-pyrrolo[2,3-b]pyridin-4-yl]oxy}phenyl)-1-[(4-fluorophenyl)methyl]urea (2a)] | 0.002
